Experimental data as given in patent US11207338B2, “Composition for preventing and treating osteoporosis, comprising dihydrophaseic acid 3′-O-β-D-glucopyranoside isolated from lycium root bark extracts” (DONG WOO DANG CO., LTD, priority 2015, dated 2021).

Assays:
C3H10T1/2 cells [1] = assay: Cell proliferation assay (EZ-Cytox, water-soluble tetrazolium salt); type: cell-based, mouse; conditions: 5 μg/mL compared with 1 and 10 μg/ml
Procedure: (§1) C3H10T1/2 cells which are mouse mesenchymal stem cells and MC3T3-E1 cells which are pre-osteoblasts were cultured in Basal Medium Eagle (BME) medium supplemented with 10% fetal bovine serum, 1 mM sodium pyruvate, 100 units/L penicillin and 100 mg/L streptomycin and α-minimal essential medium (α-MEM) at 37° C. under 5% CO2.
(§2) The D3G fraction layer obtained in Examples 1 and 2 was dissolved in sterilized distilled water and divided into three groups of concentrations of 1 μg/ml, 5 μg/ml and 10 μg/ml, and then added them to C3H10T1/2 cells and MC3T3-E1 cells respectively and further cultured for 48 hours. Cells cultured in the absence of the D3G fraction layer were used as a control.
Cell proliferation assays were performed using a EZ-Cytox Enhanced Cell Viability Assay Kit product with water-soluble tetrazolium salt.
Specifically, C3H10T1/2 cells and MC3T3-E1 cells (3×10^3 cells/well) were inoculated into 96-well plates and cultured in growth medium at 37° C. for 24 hours in 5% CO2, and then the Lycium root bark extracts of three concentrations (1 μg/ml, 5 μg/ml and 10 μg/ml) were added to the cells and cultured for 2 days. […]
(§3) Statistical analysis was performed by student's t-test for the control group without extract treatment and for each treatment group with extract treatment, and expressed as *p<0.05 depending on significance level.

MC3T3-E1 cells [2] = assay: as above; type: cell-based; conditions: differentiation induced MC3T3-E1 cells; 5 μg/mL compared with 1 and 10 μg/ml
Procedure: as §1
(§4) In the case of MC3T3-E1 cells, ascorbic acid (50 μg/ml) and β-Glycerophosphate (10 mM), which are the osteoblast differentiation-inducing agents, were added, and then differentiation was induced for 3 days before treatment with the D3G fraction layer.
as §2
Cell proliferation assays were performed using a EZ-Cytox Enhanced Cell Viability Assay Kit product with water-soluble tetrazolium salt. […]
as §3

C3H10T1/2 cells [3] = assay: Analysis of ALP activity; type: cell-based, mouse
Procedure: as §1, §2
(§5) After culturing the D3G-treated experimental group treated with the three kinds of concentrations (1 μg/ml, 5 μg/ml, 10 μg/ml) and the control group for 48 hours, ALP activity of cells was measured. ALP activity was measured using a ALP Assay Kit.
Specifically, after washing the cells with the physiological saline, the cell lysed with cytolytic agent was treated with p-nitrophenyl phosphate which is a substrate of ALP and then cultured at 37° C. for 1 hour. Thereafter, 0.5N NaOH which is a reaction stop solution was added, and then the absorbance was measured at a wavelength of 405 nm. […]

MC3T3-E1 cells [4] = assay: Analysis of ALP activity; type: cell-based
Procedure: as §1
In the case of MC3T3-E1 cells, ascorbic acid (50 μg/ml) and β-Glycerophosphate (10 mM), which are the osteoblast differentiation-inducing agents, were added, and then differentiation was induced for 3 days before treatment with the D3G fraction layer. […]
as §5
Specifically, after washing the cells with the physiological saline, the cell lysed with cytolytic agent was treated with p-nitrophenyl phosphate which is a substrate of ALP and then cultured at 37° C. for 1 hour. Thereafter, 0.5N NaOH which is a reaction stop solution was added, and then the absorbance was measured at a wavelength of 405 nm.
The effect of the cell ALP activity of the Lycium root bark extract in C3H10T1/2 cells and differentiation induced MC3T3-E1 cells was analyzed by the method as described above, and the results are shown in FIG. 4. […]

MC3T3-E1 cells [5] = assay: Analysis of mineralization action (alizarin red S staining); type: cell-based; conditions: 5 μg/mL, 3 weeks, vs control
Procedure: as §4
The analysis of mineralization action of the cells was performed after incubation of the experimental group treated with 5 μg/ml of the D3G and the control group for 3 weeks. The analysis of mineralization action was performed using the Alizarlin red S staining method.

[6] = test system: monocytes isolated from mouse bone marrow; assay: Osteoclast differentiation (TRAP activity and TRAP staining); type: cell-based; conditions: mouse monocytes with M-CSF and RANKL; 5 μg/ml; treated vs untreated
Procedure: Osteoclasts was isolated from primary monocytes, which are the […] of osteoclasts from the bone marrow of a 6 week old mouse, and cultured them. After confirming that the osteoclasts isolated from mouse stem cells were monocytes isolated from the bone marrow of the mouse through FACS (FIG. 6a) (monocyte positive marker antibody: CD11b), an experiment was performed. Separated mouse monocytes were treated with 30 ng/ml M-CSF and 50 ng/ml LANKL, which are osteoclast differentiation-inducing agents, and differentiation was induced for 3 days before treatment with D3G fraction layer.
Osteoclasts are derived from stem cells and are responsible for bone resorption that destroys aged bone wherein bone remodeling is maintained through the balanced action of osteogenesis by osteoblasts and bone resorption by osteoclasts. To the monocytes extracted and cultured from the stem cells of the femoral region of the mouse, 30 ng/mL M-CSF and 50 ng/mL RANKL were added together and then cultured for 5 days. Thereafter, the activity of TRAP which is an osteoclast differentiation marker was measured.
After washing the cells with physiological saline, TRAP activity was measured by absorbance at a wavelength of 405 nm using an Acid-Phosphatase Kit, and after staining, the osteoclasts were observed through a microscope.

MC3T3-E1 cells [7] = assay: Expression level of osteoblast differentiation gene markers (real-time PCR); type: cell-based; conditions: differentiation-induced MC3T3-E1 cells; 5 μg/ml; relative to Gapdh
Procedure: as §4
The change in the expression levels of mRNAs of osteoblast differentiation gene markers, Alp, Runx2, and Bglap (Osteocalcine) among bone remodeling-related gene markers was confirmed by a quantitative reverse transcription-PCR.
After harvesting the cells, total RNA was isolated using Trizol, and in order to remove genomic DNA, DNase I was reacted at room temperature for 15 minutes and then treated with EDTA to inactivate DNase I.
Thereafter, the reverse transcription reaction was induced by using oligo dT primer as a primer to synthesize cDNA, and then real-time PCR was performed using sequence specific primers of each gene and SYBR Green. The analysis of the expression level was performed by using the relative quantification method for the target gene using the Gapdh gene as a control. The gene-specific primer sequence information for identifying the level of expression of the gene markers used to determine the degree of differentiation of osteoblasts and osteoclasts is shown in Table 1 below.
Expression levels of the three gene markers, Alp, Runx2, and Bglap related to bone remodeling for the D3G in differentiation-induced MC3T3-E1 cells were compared by the method as described above, and the results are shown in FIGS. 7a, 7b, and 7c. Statistical analysis was performed by student's t-test and expressed as *p<0.05 depending on significance level.

[8] = test system: mixed culture of MC3T3-E1 pre-osteoblasts and mouse monocytes; assay: Mixed culture of osteoblast and osteoclast (ALP and TRAP activity); type: cell-based; conditions: MC3T3-E1 plus monocytes mixed culture; 5 μg/mL
Procedure: In order to assess the maintenance of bone remodeling under the condition closer to the in vivo condition through the balanced action between osteogenesis and bone resorption by osteoblasts and osteoclasts, MC3T3-E1(2×10^4 cells/well), which are pre-osteoblasts, and monocytes (4×10^4 cells/well) obtained by extracting stem cells from the femoral region of the mouse and culturing them were mixed and cultured.
To the mixed culture of osteoblasts and osteoclasts, ascorbic acid (50 μg/ml) and β-glycerophosphate (10 mM) which are osteoblast differentiation-inducing agents were added to induce differentiation for 3 days and then treated with D3G fraction layer. After adding the D3G fraction layer (5 μg/mL) to the mixed culture solution, the activity of ALP which is an osteoblast differentiation marker and the activity of TRAP which is an osteoclast differentiation marker were measured. Statistical analysis was performed by student's t-test and expressed as *p<0.05 and **p<0.01 depending on significance level.

## CC(=C/C(=O)O)/C=C/[C@]1(O)[C@]2(C)CO[C@@]1(C)C[C@@H](OC1OC(CO)C(O)C(O)C1O)C2 (stereo partly drawn) [D3G, dihydrophaseic acid 3′-O-β-D-glucopyranoside]
C3H10T1/2 cells [1]
  cell proliferation promoting effect at the optimal concentration: highest
MC3T3-E1 cells [2]
  cell proliferation promoting effect at the optimal concentration: highest
C3H10T1/2 cells [3]; 5 μg/mL compared with 1 and 10 μg/ml
  enhancing effect of cell ALP activity at 5 μg/mL: best effect
C3H10T1/2 cells [3]; 1, 5 and 10 μg/ml, 48 hours, vs control
  ALP activity: increase ALP activity
MC3T3-E1 cells [4]; MC3T3-E1 cells, 5 μg/mL compared with 1 and 10 μg/ml
  enhancing effect of cell ALP activity at 5 μg/mL: best effect
MC3T3-E1 cells [4]; differentiation induced MC3T3-E1 cells, 1, 5 and 10 μg/ml, 48 hours, vs control
  ALP activity: increase ALP activity
MC3T3-E1 cells [5]
  mineralization (alizarin red S staining): increase mineralization
[6]
  TRAP activity (osteoclast differentiation marker): no significant change
  TRAP staining of differentiated osteoclast: no significant change
MC3T3-E1 cells [7]
  expression level of Alp mRNA: increased
  expression level of Bglap (Osteocalcin) mRNA: increased
  expression level of Runx2 mRNA: increased
[8]
  ALP activity in mixed culture: increase
  TRAP activity in mixed culture: increase
